Results published in a melting point compilation (Tetko et al.).

Compound	melting point [°C]
CCc1nc(NC(=O)NS(=O)(=O)c2cccs2)nc(Cl)c1C	187 to 188
CCOC(C)OCC	-100
CC(CO)NC(=O)C1C=C2c3cccc4[nH]cc(c34)CC2N(C)C1 (centres undefined)	162
CC1(c2ccc(Oc3ccccc3)cc2)OC(=O)N(Nc2ccccc2)C1=O (centres undefined)	142
FC(F)(F)c1ccc2c(Cl)ccnc2c1	69 to 73
O=c1n(CCCN2CCN(c3cccc(Cl)c3)CC2)nc2ccccn12	87
C=CCC1=C(C)C(OC(=O)C2C(C=C(C)C)C2(C)C)CC1=O (centres undefined)	4
CC(C)C12C=CC(C)(CC1)OO2 (centres undefined)	3.3
CC12C=CC(=O)C=C1C(F)CC1C2C(O)CC2(C)C1CCC2(O)C(=O)CO (centres undefined)	210
O=[N+]([O-])C=Cc1c(Cl)cccc1Cl	62 to 66
CC1=NN(c2ccccc2)C(=O)/C1=N\Nc1ccc(C(=O)O)cc1	313
O=C(CBr)c1ccnc(Cl)c1	55 to 56.5
Cc1cc(CO)ccc1[N+](=O)[O-]	56 to 60
Cc1cc(C(=O)O)cc(O)n1	240
c1ccc2c(c1)Oc1nc3ccccc3nc1O2	256
CCCCCCCCCCCCC1CCC1=O (centres undefined)	28 to 31
CCOc1ccc([C@]2(C(=O)N3CCC[C@H](C)[C@@H]3C)CC2(Cl)Cl)cc1	160
CC(=O)c1sc(-c2ccc(C(C)(C)C)cc2)cc1N	179 to 181
COCc1cc(O)nc(S)n1	220 to 223
CC(=O)Nc1cccc(NCC(=O)c2ccccc2)c1	171
CC(=O)OC1CCC2(C)C(=CC(=O)C3C2CCC2(C)C(OCc4ccccc4)CCC32)C1 (centres undefined)	203
CC(CC(C(N)=O)(c1ccccc1)c1ccccn1)N(C)C (centres undefined)	156

Compound	melting point [°C]
Cc1cccc(/N=N/c2c(N)nn3c(C(F)(F)F)cc(C)nc23)c1	209
Cc1c(Cl)c(C)c(Cl)c(Cl)c1Cl	223
CC(N)Cc1ccc(O)cc1 (centres undefined)	126
O=[N+]([O-])c1ccc(-c2ccc(-c3ccc([N+](=O)[O-])cc3)cc2)cc1	278
O=C1OC2(CCCCC2)OC1c1ccccc1 (centres undefined)	87
CCN(C(=O)n1nnn(-c2ccccc2Cl)c1=O)C1CCCCC1	79
COC(=O)[C@@]12[C@H]3c4c(c(-c5ccccc5)c5ccccc5c4-c4ccccc4)[C@@H]1C=C[C@]32C(=O)OC	210
COc1ccc(CC#N)cc1F	48
Cc1ccc(N)c(O)c1	157
O=Cc1ccc(CN2CCOCC2)cc1	53 to 56
C/C(=N/NC(N)=O)C(=O)Nc1ccc(Br)cc1	243 to 245
FC(Cl)CCl (centres undefined)	-60
COc1cc(C(=O)NN)cc(OC)c1O	156
c1cn[nH]c1	68
O=C1c2cccc(O)c2C(=O)c2c(O)cccc21	193
CC1=NCCN1	107
N#Cc1c(O)ccc([N+](=O)[O-])c1O	239 to 240
N#CCCP(CCC#N)CCC#N	98
O=[N+]([O-])c1ccc2ncsc2c1	175
CC(=O)OC1CC2C(C)C(=O)C3(C(O)CC4C(C)(C)CCC(OC(C)=O)C4(C)C13)C2O (centres undefined)	246
O=c1[nH]c2scc(-c3ccccc3)c2c(=O)n1-c1cccc(Cl)c1	269 to 270

Next, values leading:

melting point [°C]	Compound
92.5 to 93.5	CC1(CC(=O)O)OCCc2sccc21 (centres undefined)
58	CC(=O)CCc1ccc(CCC(C)=O)c([N+](=O)[O-])c1
198	O=C1OC(c2ccc(OP(=O)(O)O)cc2)(c2ccc(OP(=O)(O)O)cc2)c2ccccc21
125	O=C(O)c1c(Cl)ccc(Cl)c1Cl
86 to 88	CSc1ncc(C=O)n1Cc1ccccc1
62 to 65	CC(C)[Si](C(C)C)(C(C)C)n1ccc2c(Br)cccc21
175	c1ccc(C(c2ccccc2)(c2ccccc2)N2CCOCC2)cc1
23 to 25	COc1ccc(C(=O)N=C=S)cc1
120 to 130	Cn1cnc2c(NCc3ccccc3)nc(NCCO)nc21
151 to 153	NNC(=O)C12CC3CC(CC(C3)C1)C2
173	O=S(=O)(O)CCS(=O)(=O)O
104 to 106	O=C(CCl)Nc1ccc(Oc2ccccc2)cc1
293	CSc1c(C#N)c(N)nc2c(/N=N/c3cccc(C(F)(F)F)c3)c(N)nn12
305 to 307	N#CC1=C(N)n2nc(C(F)(F)F)nc2NC1c1ccc(Cl)cc1Cl (centres undefined)
128	C=C(C)C(=O)Nc1ccc(Cl)c(Cl)c1
300	Oc1ccnc(S)n1
156	O=C(O)CSc1cccc2cccc(Cl)c12
124 to 126	O=[N+]([O-])c1ccc(Sc2ccc(N=C=S)cc2)cc1
143 to 144	CN(C)c1ccc(C2Nn3c(COc4ccccc4)nnc3S2)cc1 (centres undefined)
53	CC1CCC(C(C)C)C(OC(=O)C(c2ccccc2)c2ccccc2)C1 (centres undefined)
254	Oc1ccc(C=Cc2cc(O)cc(O)c2)cc1
75 to 78	CC(C)CC(O)C(=O)O (racemic)
287	O=C1C(c2cccc(C3=[N+]([O-])c4cc([N+](=O)[O-])ccc4C3=O)c2)=[N+]([O-])c2cc([N+](=O)[O-])ccc21

melting point [°C]	Compound
44	CSc1nc2ccccc2s1
240 to 242	Cc1cc(C(=O)O)c2ccccc2n1
126	CC1C2CCC3C4CC=C5CC(N(C)C)CCC5(C)C4CCC32CN1C (centres undefined)
181	N#Cc1ccc(N)cc1C#N
126	Cc1ccc(C=NO)cc1
202	OCc1ccccc1C(c1ccc(O)cc1)c1ccc(O)cc1
29 to 31	Cc1ccc(S(=O)(=O)OCC2COC(C)(C)O2)cc1 (centres undefined)
54.5	CCOC(=O)CCCCCCCCCCCCCCCCC(=O)OCC
177 to 178	CCOC(=O)c1sc(N)nc1C
43	CC(=O)c1sccc1Br
-75	CC[Si](Cl)(CC)CC
44 to 52	O=C(N=NC(=O)OCc1ccccc1)OCc1ccccc1
64	ClCc1noc(-c2ccccc2)n1
66.8	CC(=O)C[C@@]1(O)C(=O)c2ccccc2-c2ccccc21
163	OCc1c2ccccc2cc2ccccc12
238	C=CC=c1c(=CC)c(O)c(C2=NNC(=O)C2=CNc2ccncc2)c(=O)n1C
102 to 103	CC(Nc1cc(C)ccn1)=C(C#N)C(=O)c1ccccc1
53	CCOC(=O)CN=C(c1ccccc1)c1ccccc1
163 to 166	O=C(CCl)NNC(=O)c1ccccc1
104 to 106	C/C(=N\O)c1ccc2c(c1)CCCC2
163	O=C1C=CC(=O)c2c(Cl)cccc21
185	Cn1ncc2c(=N)n(N)cnc21
57.5	CCC(CO)(CO)[N+](=O)[O-]
